According to patent US20230085307A1, “PYRIDAZINONE COMPOUND AND HERBICIDE” (NISSAN CHEMICAL CORPORATION, priority 2019, published 2023):

Experiments:
oval-leafed pondweed = experiment: Test Example 2: herbicidal activity, application during weed generation under submerged conditions (Table 17, symbol C); type: in vivo, oval-leafed pondweed (Monochoria vaginalis); details: AAH 320 g/ha; application during weed generation, submerged conditions
Procedure, shortened: (§1)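 3-wk visual-criteria score after one water-surface dose. Emulsion formulation, water-diluted to set rate; applied at 1–2 leaf stage; alluvial soil, 4 cm standing water; seeds co-sown; greenhouse 25–30° C.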

Italian ryegrass = experiment: Test Example 4: herbicidal effect by soil treatment (Table 19, symbol K); type: in vivo, Italian ryegrass (Lolium multiflorum); details: for herbicidal effect rating, K: Italian ryegrass: 320 g/ha
Procedure, shortened: (§2)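 Scoring uses the grading scale of an earlier test, three weeks post-application. Treatment consists of spraying a diluted emulsion formulation across the surface of sterilized diluvial soil in which seeds are buried near 1.5 cm deep; boxes are kept in a greenhouse between 25° C. and 30° C.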

southern crabgrass = experiment: Test Example 4: herbicidal effect by soil treatment (Table 19, symbol F); type: in vivo, southern crabgrass (Digitaria ciliaris); details: for herbicidal effect rating, F: southern crabgrass: 320 g/ha
Procedure, shortened: as §2

Japanese bulrush = experiment: Test Example 1: herbicidal activity, application before weed generation under submerged conditions (Table 16, symbol B); type: in vivo, Japanese bulrush (Schoenoplectus juncoides); details: 320 g/ha applied herbicide
Procedure, shortened: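 Alluvial soil was flooded to 4 cm depth, weed seeds were sown mixed and 2.5-leaf rice seedlings were transplanted. On sowing day, the compound's emulsion, diluted in water to a set dose, was applied to the water surface. Plants grew at 25–30 °C and were scored 0–5 after three weeks.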

wild oat [1] = experiment: Test Example 5: herbicidal effect by foliage application, plastic box (Table 20, symbol I); type: in vivo, wild oat (Avena fatua); details: foliage application; for effect on wild oat (I): 320 g/ha, 3 weeks after application
Procedure, shortened: (§3)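 Post-emergence foliar test in sterilized diluvial soil. Compound applied as water-diluted emulsion at a predetermined rate to 14-day-old plants; evaluation at three weeks.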

velvetleaf = experiment: Test Example 5: herbicidal effect by foliage application, plastic box (Table 20, symbol M); type: in vivo, velvetleaf (Abutilon theophrasti); details: foliage application; for effect on velvetleaf (M): 320 g/ha, 3 weeks after application
Procedure, shortened: as §3

lambsquarters [2] = experiment: Test Example 4: herbicidal effect by soil treatment (Table 19, symbol O); type: in vivo, lambsquarters (Chenopodium album); details: for herbicidal effect rating, O: lambsquarters: 320 g/ha
Procedure, shortened: as §2

blackgrass = experiment: Test Example 4: herbicidal effect by soil treatment (Table 19, symbol J); type: in vivo, blackgrass (Alopecurus myosuroides); details: for herbicidal effect rating, J: blackgrass: 320 g/ha
Procedure, shortened: as §2

windgrass [3] = experiment: Test Example 5: herbicidal effect by foliage application, plastic box (Table 20, symbol L); type: in vivo, windgrass (Apera spica-venti); details: foliage application; for effect on windgrass (L): 320 g/ha, 3 weeks after application
Procedure, shortened: as §3

wild oat [4] = experiment: Test Example 4: herbicidal effect by soil treatment (Table 19, symbol I); type: in vivo, wild oat (Avena fatua); details: for herbicidal effect rating, I: wild oat: 320 g/ha
Procedure, shortened: as §2

persian speedwell [5] = experiment: Test Example 4: herbicidal effect by soil treatment (Table 19, symbol R); type: in vivo, Persian speedwell (Veronica persica); details: for herbicidal effect rating, R: persian speedwell: 320 g/ha
Procedure, shortened: as §2

windgrass [6] = experiment: Test Example 4: herbicidal effect by soil treatment (Table 19, symbol L); type: in vivo, windgrass (Apera spica-venti); details: for herbicidal effect rating, L: windgrass: 320 g/ha
Procedure, shortened: as §2

late watergrass = experiment: Test Example 2: herbicidal activity, application during weed generation under submerged conditions (Table 17, symbol A); type: in vivo, late watergrass (Echinochloa oryzicola); details: AAH 320 g/ha; application during weed generation, submerged conditions
Procedure, shortened: as §1

lambsquarters [7] = experiment: Test Example 5: herbicidal effect by foliage application, plastic box (Table 20, symbol O); type: in vivo, lambsquarters (Chenopodium album); details: foliage application; for effect on lambsquarters (O): 320 g/ha, 3 weeks after application
Procedure, shortened: as §3

persian speedwell [8] = experiment: Test Example 5: herbicidal effect by foliage application, plastic box (Table 20, symbol R); type: in vivo, Persian speedwell (Veronica persica); details: foliage application; for effect on persian speedwell (R): 320 g/ha, 3 weeks after application
Procedure, shortened: as §3

barnyard grass = experiment: Test Example 5: herbicidal effect by foliage application, plastic box (Table 20, symbol H); type: in vivo, barnyard grass (Echinochloa crus-galli); details: foliage application; for effect on barnyard grass (H): 320 g/ha, 3 weeks after application
Procedure, shortened: as §3

Chinese sprangletop = experiment: Test Example 3: herbicidal effect by foliage application, Wagner pot (Table 18, symbol D); type: in vivo, chinese sprangletop (Leptochloa chinensis); details: 320 g/ha
Procedure, shortened: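 Plants were sown in alluvial soil held under 0.1–0.5 cm standing water and grown 14 days in a greenhouse at 25–30 °C. An emulsifiable formulation, water-diluted to the set dose, was then sprayed onto the foliage, and effects were scored three weeks later using previously defined criteria.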

[9] = AAH 320 g/ha, three weeks after application

## CCCC(=O)Oc1c(C)nn(C)c(=O)c1-c1c(-c2ccc(OC(C)C)cc2)sc2ccc(F)cc12 [2-035]
oval-leafed pondweed
  herbicidal effect rating, C: oval-leafed pondweed: 4 (Herbicidal rate of 70% or more and less than 90%)
Italian ryegrass
  herbicidal effect rating, K: Italian ryegrass: 0 (Herbicidal rate of 5% or less (almost no effect))
Southern crabgrass
  herbicidal effect rating, F: southern crabgrass: 3 (Herbicidal rate of 40% or more and less than 70%)
Japanese bulrush
  Herbicidal effect on B: Japanese bulrush (grade 0-5): 4 (Herbicidal rate of 70% or more and less than 90%)
Wild oat [1]
  effect on wild oat (I): 0 (Herbicidal rate of 5% or less (almost no effect))
velvetleaf
  effect on velvetleaf (M): 5 (Herbicidal rate of 90% or more (almost completely withered))
Lambsquarters [2]
  herbicidal effect rating, O: lambsquarters: 5 (Herbicidal rate of 90% or more (almost completely withered))
blackgrass
  herbicidal effect rating, J: blackgrass: 0 (Herbicidal rate of 5% or less (almost no effect))
Windgrass [3]
  effect on windgrass (L): 0 (Herbicidal rate of 5% or less (almost no effect))
Wild oat [4]
  herbicidal effect rating, I: wild oat: 0 (Herbicidal rate of 5% or less (almost no effect))
Persian speedwell [5]
  herbicidal effect rating, R: persian speedwell: 5 (Herbicidal rate of 90% or more (almost completely withered))
Windgrass [6]
  herbicidal effect rating, L: windgrass: 0 (Herbicidal rate of 5% or less (almost no effect))
Late watergrass
  herbicidal effect rating, A: late watergrass: 1 (Herbicidal rate of 5% or more and less than 20%)
Lambsquarters [7]
  effect on lambsquarters (O): 3 (Herbicidal rate of 40% or more and less than 70%)
Persian speedwell [8]
  effect on persian speedwell (R): 5 (Herbicidal rate of 90% or more (almost completely withered))
Barnyard grass
  effect on barnyard grass (H): 5 (Herbicidal rate of 90% or more (almost completely withered))
Chinese sprangletop
  herbicidal effect on D (Chinese sprangletop), rating 0-5: 0 (Herbicidal rate of 5% or less (almost no effect))

## CCCC(=O)Oc1c(C)nn(C)c(=O)c1-c1c(-c2ccc(Cl)cc2)sc2ccc(F)cc12 [2-011]
oval-leafed pondweed
  herbicidal effect rating, C: oval-leafed pondweed: 3 (Herbicidal rate of 40% or more and less than 70%)
Italian ryegrass
  herbicidal effect rating, K: Italian ryegrass: 5 (Herbicidal rate of 90% or more (almost completely withered))
Southern crabgrass
  herbicidal effect rating, F: southern crabgrass: 3 (Herbicidal rate of 40% or more and less than 70%)
Japanese bulrush
  Herbicidal effect on B: Japanese bulrush (grade 0-5): 3 (Herbicidal rate of 40% or more and less than 70%)
Wild oat [1]
  effect on wild oat (I): 3 (Herbicidal rate of 40% or more and less than 70%)
velvetleaf
  effect on velvetleaf (M): 5 (Herbicidal rate of 90% or more (almost completely withered))
Lambsquarters [2]
  herbicidal effect rating, O: lambsquarters: 5 (Herbicidal rate of 90% or more (almost completely withered))
blackgrass
  herbicidal effect rating, J: blackgrass: 0 (Herbicidal rate of 5% or less (almost no effect))
Windgrass [3]
  effect on windgrass (L): 3 (Herbicidal rate of 40% or more and less than 70%)
Wild oat [4]
  herbicidal effect rating, I: wild oat: 0 (Herbicidal rate of 5% or less (almost no effect))
Persian speedwell [5]
  herbicidal effect rating, R: persian speedwell: 4 (Herbicidal rate of 70% or more and less than 90%)
Windgrass [6]
  herbicidal effect rating, L: windgrass: 2 (Herbicidal rate of 20% or more and less than 40%)
Late watergrass
  herbicidal effect rating, A: late watergrass: 2 (Herbicidal rate of 20% or more and less than 40%)
Lambsquarters [7]
  effect on lambsquarters (O): 5 (Herbicidal rate of 90% or more (almost completely withered))
Persian speedwell [8]
  effect on persian speedwell (R): 5 (Herbicidal rate of 90% or more (almost completely withered))
Barnyard grass
  effect on barnyard grass (H): 5 (Herbicidal rate of 90% or more (almost completely withered))
Chinese sprangletop
  herbicidal effect on D (Chinese sprangletop), rating 0-5: 4 (Herbicidal rate of 70% or more and less than 90%)

## Cc1nn(C)c(=O)c(-c2c(-c3ccc([N+](=O)[O-])cc3)sc3ccccc23)c1O [1-151]
oval-leafed pondweed
  herbicidal effect rating, C: oval-leafed pondweed: 0 (Herbicidal rate of 5% or less (almost no effect))
Italian ryegrass; AAH 320 g/ha
  K: Italian ryegrass, herbicidal effect rating: 3 (Herbicidal rate of 40% or more and less than 70%)
Southern crabgrass; AAH 320 g/ha
  F: southern crabgrass, herbicidal effect rating: 0 (Herbicidal rate of 5% or less (almost no effect))
Japanese bulrush
  Herbicidal effect on B: Japanese bulrush (grade 0-5): 3 (Herbicidal rate of 40% or more and less than 70%)
Wild oat [1]; [9]
  I: wild oat, herbicidal effect: 0 (Herbicidal rate of 5% or less (almost no effect))
velvetleaf; [9]
  M: velvetleaf, herbicidal effect: 5 (Herbicidal rate of 90% or more (almost completely withered))
Lambsquarters [2]; AAH 320 g/ha
  O: lambsquarters, herbicidal effect rating: 2 (Herbicidal rate of 20% or more and less than 40%)
blackgrass; AAH 320 g/ha
  J: blackgrass, herbicidal effect rating: 0 (Herbicidal rate of 5% or less (almost no effect))
Windgrass [3]; [9]
  L: windgrass, herbicidal effect: 0 (Herbicidal rate of 5% or less (almost no effect))
Wild oat [4]; AAH 320 g/ha
  I: wild oat, herbicidal effect rating: 0 (Herbicidal rate of 5% or less (almost no effect))
Persian speedwell [5]; AAH 320 g/ha
  R: persian speedwell, herbicidal effect rating: 5 (Herbicidal rate of 90% or more (almost completely withered))
Windgrass [6]; AAH 320 g/ha
  L: windgrass, herbicidal effect rating: 0 (Herbicidal rate of 5% or less (almost no effect))
Late watergrass
  herbicidal effect rating, A: late watergrass: 0 (Herbicidal rate of 5% or less (almost no effect))
Lambsquarters [7]; [9]
  O: lambsquarters, herbicidal effect: 5 (Herbicidal rate of 90% or more (almost completely withered))
Persian speedwell [8]; [9]
  R: persian speedwell, herbicidal effect: 5 (Herbicidal rate of 90% or more (almost completely withered))
Barnyard grass; [9]
  H: barnyard grass, herbicidal effect: 3 (Herbicidal rate of 40% or more and less than 70%)
Chinese sprangletop
  herbicidal effect on D (Chinese sprangletop), rating 0-5: 3 (Herbicidal rate of 40% or more and less than 70%)

## CCCCCOc1ccc(-c2sc3ccc(F)cc3c2-c2c(OC(=O)CCC)c(C)nn(C)c2=O)cc1 [2-038]
oval-leafed pondweed
  herbicidal effect rating, C: oval-leafed pondweed: 0 (Herbicidal rate of 5% or less (almost no effect))
Italian ryegrass
  herbicidal effect rating, K: Italian ryegrass: 0 (Herbicidal rate of 5% or less (almost no effect))
Southern crabgrass
  herbicidal effect rating, F: southern crabgrass: 0 (Herbicidal rate of 5% or less (almost no effect))
Japanese bulrush
  Herbicidal effect on B: Japanese bulrush (grade 0-5): 0 (Herbicidal rate of 5% or less (almost no effect))
Wild oat [1]
  effect on wild oat (I): 0 (Herbicidal rate of 5% or less (almost no effect))
velvetleaf
  effect on velvetleaf (M): 4 (Herbicidal rate of 70% or more and less than 90%)
Lambsquarters [2]
  herbicidal effect rating, O: lambsquarters: 1 (Herbicidal rate of 5% or more and less than 20%)
blackgrass
  herbicidal effect rating, J: blackgrass: 0 (Herbicidal rate of 5% or less (almost no effect))
Windgrass [3]
  effect on windgrass (L): 0 (Herbicidal rate of 5% or less (almost no effect))
Wild oat [4]
  herbicidal effect rating, I: wild oat: 0 (Herbicidal rate of 5% or less (almost no effect))
Persian speedwell [5]
  herbicidal effect rating, R: persian speedwell: 4 (Herbicidal rate of 70% or more and less than 90%)
Windgrass [6]
  herbicidal effect rating, L: windgrass: 0 (Herbicidal rate of 5% or less (almost no effect))
Late watergrass
  herbicidal effect rating, A: late watergrass: 2 (Herbicidal rate of 20% or more and less than 40%)
Lambsquarters [7]
  effect on lambsquarters (O): 3 (Herbicidal rate of 40% or more and less than 70%)
Persian speedwell [8]
  effect on persian speedwell (R): 5 (Herbicidal rate of 90% or more (almost completely withered))
Barnyard grass
  effect on barnyard grass (H): 0 (Herbicidal rate of 5% or less (almost no effect))
Chinese sprangletop
  herbicidal effect on D (Chinese sprangletop), rating 0-5: 4 (Herbicidal rate of 70% or more and less than 90%)
